From patent publication USRE38460E1 (priority 1994, dated 2004)
Where two headings read alike, the source gives them in different places.

Experiments:
BuChE = biological target: T1, BuChE (Rattus norvegicus, UniProt Q9JKC1); experiment: In-vitro anticholinesterase effect (Table 6), BuChE; format: biochemical; settings: for inhibition at 10 µM: read-out: inhibition activity BuChE at 10(μM); for inhibition activity BuChE at 10(μM): Table 6
T1 construct: from tissue; host or cells: rat serum
Protocol: (§1) In the present invention a calorimetric method reported by Ellman was used to determine the effect of inhibition of the pharmaceutical on enzyme activity. The total volume of the solution of the enzyme activity reaction was 4 ml, which contained 0.3 mmol/L of acetylcholin iodide (acetylcholinesterase substrate), or 0.4 mmol/L of butyrylcholin iodide (butyrylcholinesterase substrate), 1 ml of the buffer solution of 25 mmol/L of phosphate of pH 7.4, and water to make up to 4 ml (including the amount of the enzyme solution and the testing reagent added afterwards). After the solution was kept at 37° C. for 5 minutes, 0.1-0.2 ml of enzyme solution (red cell membrane or serum of rat) was added, or 0.1-0.3 ml of the testing reagent was added at the same time. The solution was kept at the same temperature for another 8 minutes. Then 1 ml of 3% of sodium lauryl sulphate was added to terminate the reaction. Finally 1 ml of 0.2% 5,5-dithio-2,2′-nitro-benzoic acid solution was added for developing.

[1] = biological target: T2, butyrylcholinesterase (BuChE) (Rattus norvegicus, UniProt Q9JKC1); experiment: In-vitro anticholinesterase effect, colorimetric method (Ellman), BuChE from rat's serum; format: biochemical
T2 construct: from tissue; host or cells: rat serum
T2 sequence (Q9JKC1 24-597): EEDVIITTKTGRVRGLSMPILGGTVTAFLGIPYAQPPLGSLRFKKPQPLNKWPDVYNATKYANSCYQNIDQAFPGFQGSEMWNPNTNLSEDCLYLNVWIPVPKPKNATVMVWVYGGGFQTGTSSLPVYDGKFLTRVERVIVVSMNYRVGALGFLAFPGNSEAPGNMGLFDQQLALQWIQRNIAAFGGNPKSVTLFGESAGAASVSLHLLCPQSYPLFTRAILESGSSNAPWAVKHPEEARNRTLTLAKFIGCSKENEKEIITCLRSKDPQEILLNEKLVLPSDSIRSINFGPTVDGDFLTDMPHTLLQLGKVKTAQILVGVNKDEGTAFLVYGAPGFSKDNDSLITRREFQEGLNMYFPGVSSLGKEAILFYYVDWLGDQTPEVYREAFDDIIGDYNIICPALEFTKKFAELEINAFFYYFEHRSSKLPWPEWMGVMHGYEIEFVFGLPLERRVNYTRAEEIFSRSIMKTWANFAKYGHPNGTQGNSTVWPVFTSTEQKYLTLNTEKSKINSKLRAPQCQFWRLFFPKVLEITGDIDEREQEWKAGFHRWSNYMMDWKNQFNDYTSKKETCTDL
Protocol: as §1
(§2) AChE taken from rat's red cell membrane. BuChE taken from rat's serum.
(§3) AChE taken from homogenate of rat's cortex. BuChE taken from rat's serum.

[2] = biological target: T3, acetylcholinesterase (AChE) (Rattus norvegicus, UniProt P37136); experiment: biochemical; format: biochemical
T3 construct: from tissue; host or cells: rat red cell membrane
Protocol: as §1, §2
T3 sequence (P37136 other isoform, or with tags, fused parts or gaps): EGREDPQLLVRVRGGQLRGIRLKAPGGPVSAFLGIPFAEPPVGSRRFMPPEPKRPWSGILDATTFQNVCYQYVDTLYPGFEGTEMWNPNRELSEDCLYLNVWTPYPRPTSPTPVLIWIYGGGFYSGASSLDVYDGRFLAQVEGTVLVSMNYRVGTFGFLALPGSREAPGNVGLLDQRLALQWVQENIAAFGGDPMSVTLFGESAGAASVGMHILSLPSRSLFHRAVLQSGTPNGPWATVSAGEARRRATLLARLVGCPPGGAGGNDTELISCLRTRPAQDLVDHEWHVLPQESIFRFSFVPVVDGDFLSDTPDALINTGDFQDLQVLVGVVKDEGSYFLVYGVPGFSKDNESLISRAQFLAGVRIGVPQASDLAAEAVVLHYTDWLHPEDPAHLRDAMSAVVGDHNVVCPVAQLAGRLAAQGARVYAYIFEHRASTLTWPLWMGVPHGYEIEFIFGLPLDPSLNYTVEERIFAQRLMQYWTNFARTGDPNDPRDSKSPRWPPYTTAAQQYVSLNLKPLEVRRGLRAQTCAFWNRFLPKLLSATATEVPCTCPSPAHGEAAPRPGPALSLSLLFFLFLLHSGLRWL

[3] = biological target: T4, acetylcholinesterase (AChE) (Rattus norvegicus, UniProt P37136); experiment: biochemical; format: biochemical; settings: for IC50 ratio BuChE/AChE: cortex AChE, serum BuChE
T4 construct: from tissue; host or cells: homogenate of rat cortex
T4 sequence (P37136 32-614): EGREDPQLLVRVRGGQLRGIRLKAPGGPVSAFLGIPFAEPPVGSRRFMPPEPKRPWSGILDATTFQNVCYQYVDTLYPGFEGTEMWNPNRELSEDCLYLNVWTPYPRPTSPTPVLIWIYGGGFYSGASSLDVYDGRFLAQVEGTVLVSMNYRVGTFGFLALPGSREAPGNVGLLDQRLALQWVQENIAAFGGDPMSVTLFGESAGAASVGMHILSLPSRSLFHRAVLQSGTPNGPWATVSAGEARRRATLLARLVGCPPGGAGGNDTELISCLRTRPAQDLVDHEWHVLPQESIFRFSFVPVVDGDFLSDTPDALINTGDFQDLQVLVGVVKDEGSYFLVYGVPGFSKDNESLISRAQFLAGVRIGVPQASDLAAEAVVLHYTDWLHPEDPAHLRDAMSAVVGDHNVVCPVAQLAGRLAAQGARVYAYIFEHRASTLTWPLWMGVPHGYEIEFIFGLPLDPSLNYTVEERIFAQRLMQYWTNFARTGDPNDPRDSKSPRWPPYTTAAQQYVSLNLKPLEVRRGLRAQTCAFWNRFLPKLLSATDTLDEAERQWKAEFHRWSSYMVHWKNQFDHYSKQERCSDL
Protocol: as §1, §3

AChE = biological target: T5, AChE (Rattus norvegicus, UniProt P37136); experiment: biochemical
T5 construct: 0.1-0.2 ml of enzyme solution (red cell membrane or serum of rat) was added; from tissue; host or cells: rat tissue
T5 sequence (P37136 32-614): T4 sequence (P37136 32-614)
Protocol: as §1

[4] = system: memory impairment caused by scopolamine; experiment: 8-arm maze spatial distinction operation of rat, memory impairment caused by scopolamine; format: in vivo; settings: rats, 8-arm maze; scopolamine + huperzine A 0.15 + 0.25 mg/kg ip + po
[5] = Critical toxicity on mice (Bliss method); format: in vivo; settings: mouse, in vivo, po, mice, p.o., Bliss method, mortality within 7 days
Protocol: Test of each pharmaceutical was carried out using 4-5 dosage group.
Mortality within 7 days was observed.

[6] = read-out: concentration for inhibition of 50% of enzyme activity (IC50) acetylcholinesterase (AChE)
[7] = read-out: concentration for inhibition of 50% of enzyme activity (IC50) butyrylcholinesterase (BuChE), Table 1, BuChE taken from rat's serum
[8] = read-out: concentration for inhibition of 50% of enzyme activity (IC50) butyrylcholinesterase (BuChE), Table 2, BuChE taken from rat's serum
[9] = read-out: concentration for inhibition of 50% of enzyme activity (IC50) acetylcholinesterase (AChE), Table 2, AChE taken from homogenate of rat's cortex
[10] = Table 1, AChE taken from rat's red cell membrane
[11] = read-out: inhibition activity AChE IC50
[12] = Table 2, AChE taken from homogenate of rat's cortex
[13] = Table 6, read-out: inhibition activity AChE IC50

T1 sequence (Q9JKC1 24-597): as the sequence (Q9JKC1 24-597) above

## COc1cc2c(cc1OC)C(=O)C(CC1CCN(Cc3ccccc3)CC1)C2 (stereo not drawn) [E-2020, reference compound]
BuChE
  inhibition at 10 µM: 2.9%

## CNC(=O)Oc1ccc2c(c1)[C@]1(C)CCN(C)[C@@H]1N2C [Physostigmine, reference compound]
[1]
  IC50: 1.26 µM

## CC=C1C2C=C(C)CC1(NC(=O)CCC(=O)O)c1ccc(=O)[nH]c1C2 (stereo not drawn) [derivative No. 1]
[2]
  IC50 ratio BuChE/AChE: 1092.5
  inhibition effect on acetylcholinesterase (in words): remarkable inhibition effect
  inhibition effect on acetylcholinesterase compared with huperzine A: slightly weaker
  inhibition effect on acetylcholinesterase compared with physostigmine and galanthamine: apparently stronger
  selective inhibition effect on acetylcholinesterase compared with huperzine A: greater selective inhibition effect
[2]; [6]
  IC50: 0.348 µM
[1]; [7]
  IC50: 380 µM
[1]; [8]
  IC50: 380 µM
[1]; see Tables 1, 2 and 6
  inhibition effect on butyrylcholinesterase (pseudo enzyme) compared with huperzine A: weaker inhibition effect
[3]; Table 2
  IC50 ratio BuChE/AChE: 1094.1
[3]; [9]
  IC50: 348 nM

## CC=C1C2C=C(C)CC1(NC(=O)Cc1ccccc1)c1ccc(=O)[nH]c1C2 (stereo not drawn) [derivative No. 2]
[2]; [10]
  IC50: 9.05 µM
[1]
  IC50: > 347 µM

## CC=C1C2C=C(C)CC1(NC(=O)c1cccnc1)c1ccc(=O)[nH]c1C2 (stereo not drawn) [derivative No. 4]
[2]; [10]
  IC50: > 12.9 µM
[1]
  IC50: 58.9 µM

## CC=C1C2C=C(C)CC1(NC(=O)c1cccnc1)c1ccc(=O)n(C(=O)c3cccnc3)c1C2 (stereo not drawn) [derivative No. 5]
[2]; [10]
  IC50: > 11 µM
[1]
  IC50: > 275 µM

## CC=C1C2C=C(C)CC1(NC(=O)C1=CN(C)CC=C1)c1ccc(=O)[nH]c1C2 (stereo not drawn) [derivative No. 6]
[2]; read-out: concentration for inhibition of 50% of enzyme activity (IC50) acetylcholinesterase (AChE), Table 1, AChE taken from rat's red cell membrane
  IC50: > 12.3 µM
[1]; [7]
  IC50: > 309 µM

## CC=C1C2C=C(C)CC1(NC(=O)C(C)C)c1ccc(=O)[nH]c1C2 (stereo not drawn) [derivative No. 10]
[2]; [6]
  IC50: > 15.8 µM
[1]; [7]
  IC50: 110 µM

## CC=C1C2C=C(C)CC1(NC(=O)c1ccccc1)c1ccc(=O)[nH]c1C2 (stereo not drawn) [derivative No. 11]
[2]; [6]
  IC50: > 14.5 µM
[1]; [7]
  IC50: 363 µM

## CC=C1C2C=C(C)CC1(NC(=O)c1ccccn1)c1ccc(=O)[nH]c1C2 (stereo not drawn) [derivative No. 12]
[1]; [8]
  IC50: 251 µM
[3]; Table 2
  IC50 ratio BuChE/AChE: 1995.2
[3]; [9]
  IC50: 126 nM

## CC=C1C2C=C(C)CC1(NC(=O)c1ccncc1)c1ccc(=O)[nH]c1C2 (stereo not drawn) [derivative No. 14]
AChE
  BuChE/AChE: >100
  inhibition activity AChE at 1(μM): 76.4
AChE; [11]
  IC50: 360 nM
BuChE
  inhibition activity BuChE at 10(μM): 2.5

## CC=C1C2C=C(C)CC1(NC(=O)c1ccccc1C(=O)O)c1ccc(=O)[nH]c1C2 (stereo not drawn) [derivative No. 15]
[1]; [8]
  IC50: 502 µM
[3]; Table 2
  IC50 ratio BuChE/AChE: 795.6
[3]; [9]
  IC50: 631 nM
AChE
  inhibition activity AChE at 1(μM): 60.8
BuChE
  inhibition activity BuChE at 10(μM): 0

## CC=C1C2C=C(C)CC1(NC(=O)/C=C/CC(=O)O)c1ccc(=O)[nH]c1C2 (stereo not drawn) [derivative No. 16]
AChE
  BuChE/AChE: >200
  inhibition activity AChE at 1(μM): 80.7
AChE; [11]
  IC50: 210 nM
BuChE
  inhibition activity BuChE at 10(μM): 1.8

## CC=C1C2C=C(C)CC1(N=Cc1ccccc1O)c1ccc(=O)[nH]c1C2 (stereo not drawn) [derivative No. 20]
[1]
  IC50: 126 µM
[3]; [12]
  IC50: 178 nM
[3]; Table 2
  IC50 ratio BuChE/AChE: 708.1
AChE
  IC50: 94 nM
AChE; Table 6
  BuChE/AChE: >500
  inhibition at 1 µM: 83.7%
BuChE
  inhibition at 10 µM: 0%

## CC=C1C2C=C(C)CC1(N=Cc1cc(OC)c(OC)c(OC)c1)c1ccc(=O)[nH]c1C2 (stereo not drawn) [derivative No. 21]
[1]
  IC50: 158 µM
[3]; [12]
  IC50: 141 nM
AChE; Table 6
  inhibition at 1 µM: 84.9%
BuChE
  inhibition at 10 µM: 0%

## CC=C1C2C=C(C)CC1(N=Cc1ccc(OC)c(OC)c1O)c1ccc(=O)[nH]c1C2 (stereo not drawn) [derivative No. 22]
[1]
  IC50: 126 µM
[3]; [12]
  IC50: 126 nM
[3]; Table 2
  IC50 ratio BuChE/AChE: 1000.0
AChE; Table 6
  inhibition at 1 µM: 68.7%
BuChE
  inhibition at 10 µM: 0%

## CC=C1C2C=C(C)CC1(N=Cc1ccc(O)cc1O)c1ccc(=O)[nH]c1C2 (stereo not drawn) [derivative No. 23]
[1]
  IC50: 200 µM
[3]; [12]
  IC50: 251 nM
[3]; Table 2
  IC50 ratio BuChE/AChE: 794.2
AChE; Table 6
  inhibition at 1 µM: 34.4%
BuChE
  inhibition at 10 µM: 0%

## CC=C1C2C=C(C)CC1(N=Cc1cccc(O)c1O)c1ccc(=O)[nH]c1C2 (stereo not drawn) [derivative No. 24]
[3]; [12]
  IC50: 100 nM
AChE; Table 6
  inhibition at 1 µM: 78.3%
AChE; [13]
  IC50: 280 nM
BuChE
  inhibition at 10 µM: 0%

## CC=C1C2C=C(C)CC1(N=Cc1ccc(O)c(O)c1O)c1ccc(=O)[nH]c1C2 (stereo not drawn) [derivative No. 25]
[1]
  IC50: 251 µM
[3]; [12]
  IC50: 159 nM
[3]; Table 2
  IC50 ratio BuChE/AChE: 1584.9
AChE; Table 6
  inhibition at 1 µM: 62%
BuChE
  inhibition at 10 µM: 0%

## CC=C1C2C=C(C)CC1(N=Cc1cccc(OC)c1O)c1ccc(=O)[nH]c1C2 (stereo not drawn) [derivative No. 26]
AChE; Table 6
  BuChE/AChE: >300
  inhibition at 1 µM: 79.7%
AChE; [13]
  IC50: 180 nM
BuChE
  inhibition at 10 µM: 1.1%

## CC=C1C2C=C(C)CC1(N=CC=Cc1ccccc1)c1ccc(=O)[nH]c1C2 (stereo not drawn) [derivative No. 27]
[1]
  IC50: 100 µM
[3]
  IC50: 126 nM
[3]; Table 2
  IC50 ratio BuChE/AChE: 794.3
AChE; Table 6
  BuChE/AChE: >500
  inhibition at 1 µM: 84%
AChE; [13]
  IC50: 110 nM
BuChE
  inhibition at 10 µM: 3.3%

## CC=C1C2C=C(C)CC1(N=Cc1cccnc1)c1ccc(=O)[nH]c1C2 (stereo not drawn) [derivative No. 44]
AChE; Table 6
  BuChE/AChE: >500
  inhibition at 1 µM: 85.6%
AChE; [13]
  IC50: 110 nM
BuChE
  inhibition at 10 µM: 1.8%

## C/C=C1\C2C=C(C)C[C@]1(N)c1ccc(=O)[nH]c1C2 [huperzine A, (5R, 9R, 11E)-5-amino-11-ethylidene-5,6,9,10-tetrahydro-7-methyl-5,9-methylene cycloocta [b] pyridyl-2(1H)-one, reference compound]
[4]
  No. of mistakes in operation before reaching the standard, reference memory (X + SEM): 0.57
  No. of mistakes in operation before reaching the standard, working memory (X + SEM): 0.86
[5]; first of two columns headed LD50, read-out: LD50 (first column) (95% confidence limit)
  LD50 at 7 days: 3.1 mg/kg
[5]; second of two columns headed LD50, read-out: LD50 (second column) (95% confidence limit)
  LD50 at 7 days: 4.6 mg/kg
